pIC50: −log10 of the molar value. Where a SMILES comes first, the peptide text is derived from it. [ ]: non-standard residue; d: D form. The star is where a group is joined. ξ: configuration not given here. Pro(trans-4-F) = O=C(O)[C@@H]1C[C@@H](F)CN1; NMeIle(3ξ) = CCC(C)[C@H](NC)C(=O)O; Dab = NCC[C@H](N)C(=O)O; Hexanoyl = CCCCCC(=O)*; Bz = O=C(c1ccccc1)*; NHOH = ON*
Legend:
MMP-7 = MMP-7 (Homo sapiens (Human), UniProt P09237); assay: MMP-7 inhibition assay (fluorogenic peptide substrate); type: biochemical; settings: recombinant MMP-7 8.3 nM, Mca-PLGL-Dpa-AR-NH2 10 μM, 4 hours at room temperature; tested at 1, 10, 100 and 200 μM
Description: All the experiments were done in 1× reaction buffer, which was obtained from a 10× reaction buffer solution. The content of the 10× reaction buffer was: 50 mL of 0.5 M Tris-HCl, 1.5 M NaCl, 50 mM CaCl2 and 2 mM sodium azide at pH 7.6. To obtain the 1× reaction buffer 4 mL of the 10× reaction buffer were diluted in 36 mL of H2O.
Recombinant MMP-7 expressed in E. Coli was obtained from Merck-Millipore (catalog number 44270). Mca-PLGL-Dpa-AR-NH2 (fluorogenic peptide substrate) was obtained from R&D Systems (catalog number ES001).
Preparation of the MMP-7 for the activity assay: MMP-7 was provided as a stock solution (2.1 mg/mL). The enzyme was diluted in water to a final concentration of 0.005 mg/mL.
MMP-7 peptide substrate was provided as a solid (1 mg). A 4 mM stock solution of the substrate in DMSO was obtained by adding 214.7 μL of DMSO. After which, a 100 μM solution of substrate was prepared in 1× reaction buffer.
Procedure: The enzymatic assays were performed in 96-well microtiter plate, which allowed simultaneous monitoring of multiple reactions. For each reaction, 84.6 μL of 1× reaction buffer (pH 7.6), 3.4 μL of MMP-7 (final concentration 8.3 nM) and 2 μL of the corresponding new compound were added to each well. A stock solution of new compound was prepared in DMSO (100 mM), and dilutions were prepared from this stock solution with DMSO. Finally, to the mixture contained in each well 10 μL of the substrate were added (final concentration 10 μM). The reaction was incubated for 4 hours at room temperature in an orbital shaker (90 rpm).
The inhibitory activity of the new compound was measured fluorimetrically. The excitation and emission wavelengths were 320 and 405 nm, respectively.
Inhibitory activity at several concentration points (1, 10, 100 and 200 μM) were measured for each compound. The inhibitory activity on MMP-1, MMP-3 and MMP-7 was calculated according to eq 1 and The IC50 value was calculated as explained above for MMP-2 and MMP-9.

[1] = Parallel artificial membrane permeability assay (PAMPA), Blood-Brain Barrier; type: in vitro ADME; settings: initial concentration 200 μM, pH 7.4, 4 hours; for Papp at 4 h, 200 µM: pig, read-out: Effective permeability Pe
Description: Parallel Artificial Membrane Permeability Assay (PAMPA)
Parallel artificial membrane permeability assay (PAMPA) described in Kansy et al., J. M. Chem. 1998; 41(7):1007-10 was used here to determine the capacity of compounds to cross the Blood-Brain Barrier (BBB) by passive diffusion (Di L et al., Eur. J. Med. Chem. 2003; 38(3):223-32). The effective permeability (Pe) of the compounds was measured at an initial concentration of 200 μM. The buffer solution was prepared from a commercial concentrated one following the manufacturer's instructions. pH was adjusted to 7.4 using a 0.5 M NaOH solution. A stock solution of new compound was prepared in DMSO and diluted with buffer solution to a final 200 μM concentration (0.5% DMSO content). The PAMPA sandwich was separated and each donor well was filled with […] of the compound solution. The acceptor plate was placed into the donor plate, ensuring that the underside of the membrane was in contact with buffer. 4 μL of the mixture of phospholipids (20 mg/ml) in dodecane was added to the filter of each well, and 200 μL of buffer solution was added to the each acceptor well. The plate was covered and incubated at room temperature in a saturated humidity atmosphere for 4 hours under orbital agitation at 100 rpm. After 4 hours, the contents of the acceptor and donor compartments were analyzed by HPLC: 150 μL of each well from the donor plate and 150 μL of each well from the acceptor plate were transferred to HPLC vials, injecting each sample into a reverse-phase C18 column (150 mm×4.6 mm×5 μm, 100 Å) (100 μL/injection from the acceptor wells, 10 μL/injection from the donor wells and for t0 references). Transport was also confirmed using mass spectrometry (MALDI-TOF).
The phospholipid mixture used was a porcine polar brain lipid extract, provided by Avanti polar lipids, with the following composition: 12.6% phosphatidylcholine (PC), 33.1% phosphatidylethanolamine (PE), 18.5% phosphatidylserine (PS), 4.1% phosphatidylinositol (PI), 0.8% phosphatidic acid and 30.9% of other compounds.
The effective permeability (Pe) after 4 hours was calculated using equation 2 and the percentage of transport (T %) was calculated using equation 3: […]
Ca(t) is the compound concentration in the acceptor well at time t
And Cd(t0) is the compound concentration in the donor well at t0.

Chain of MMP-7 (P09237 95-267): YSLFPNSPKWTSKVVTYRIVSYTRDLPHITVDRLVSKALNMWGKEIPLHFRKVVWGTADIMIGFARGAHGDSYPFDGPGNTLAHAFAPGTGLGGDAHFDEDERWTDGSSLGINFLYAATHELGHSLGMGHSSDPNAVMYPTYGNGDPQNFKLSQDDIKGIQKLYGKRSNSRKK

Row | pIC50 (MMP-7) | percentage of transport % T [1] [%] | Papp at 4 h, 200 µM [1] [×10⁻⁶ cm/s] | SMILES
1 | 4.39 | 9.9 | 5.2 | CCC(C)[C@@H](C(=O)N[C@@H](CCNC(=O)c1cc(F)cc(F)c1)C(=O)NO)N(C)C(=O)[C@@H]1CCCN1C(=O)CCCOc1ccccc1 (stereo partly drawn) [Example 9, (2S)—N-[(1S)-1-[[(1S)-3-[(3,5-difluorobenzoyl)amino]-1-(hydroxycarbamoyl)propyl]carbamoyl]-2-methyl-butyl]-N-methyl-1-(4-phenoxybutanoyl)pyrrolidine-2-carboxamide]
2 | 4.28 | 14.3 | 3.5 | CCCCCCCC(=O)N1CCC[C@H]1C(=O)N(C)[C@H](C(=O)N[C@@H](CCNC(=O)c1cc(F)cc(F)c1)C(=O)NO)C(C)CC (stereo partly drawn) [Example 6, (2S)—N-[(1S)-1-[[(1S)-3-[(3,5-difluorobenzoyl)amino]-1-(hydroxycarbamoyl)propyl]carbamoyl]-2-methyl-butyl]-N-methyl-1-octanoyl-pyrrolidine-2-carboxamide]
3 | 5.39 | 9.0 | 4.7 | CCCC(CCC)C(=O)N1CCC[C@H]1C(=O)N(C)[C@H](C(=O)N[C@@H](CCNC(=O)c1cc(F)cc(F)c1)C(=O)NO)C(C)CC (stereo partly drawn) [Example 8, (2S)—N-[(1S)-1-[[(1S)-3-[(3,5-difluorobenzoyl)amino]-1-(hydroxycarbamoyl)propyl]carbamoyl]-2-methyl-butyl]-N-methyl-1-(2-propylpentanoyl)pyrrolidine-2-carboxamide]

Row | SMILES | pIC50 (MMP-7) | percentage of transport % T [1] [%] | Papp at 4 h, 200 µM [1] [×10⁻⁶ cm/s]
4 | CCCCCC(=O)N1C[C@H](F)C[C@H]1C(=O)N(C)[C@H](C(=O)N[C@@H](CCNC(=O)c1ccccc1)C(=O)NO)C(C)CC (stereo partly drawn) [Example 16, (2S,4R)—N-[(1S)-1-[[(1S)-3-benzamido-1-(hydroxycarbamoyl)propyl]carbamoyl]-2-methyl-butyl]-4-fluoro-N-methyl-1-hexanoyl-pyrrolidine-2-carboxamide] (Hexanoyl-[Pro(trans-4-F)]-[NMeIle(3ξ)]-[Dab](Bz)-{NHOH}) | 6.00 | 7.3 | 3.7
